Test [1] has as its target human recombinant LPA1 Lysophospholipid receptor (Homo sapiens, UniProt Q92633). As to the kind of experiment: Calcium flux assay using FLIPR, LPA1 antagonist activity. As to conditions: for IC50: ChemiScreen Calcium-optimized stable cell line, antagonist mode, inhibition of agonist-induced calcium flux. It counts as cell-based. The method, then: (§1) Calcium Flux Assay Using Fluorometric Imaging Plate Reader (FLIPR)
Cell Culture Conditions: The ChemiScreen Calcium-optimized stable cell line containing the human recombinant LPA1 Lysophospholipid receptor was purchased from Chemicon International, Inc./Millipore. The cells were cultured in DMEM-high glucose supplemented with 10% fetal bovine serum, 2 mM glutamine, 100 U/mL penicillin/100 μg/mL streptomycin, 1× non-essential amino acids, 10 mM HEPES and 0.25 mg/mL Geneticin. Cells were harvested with trypsin-EDTA and counted using ViaCount reagent. The cell suspension volume was adjusted to 2.0×10^5 cells/mL with complete growth media. Aliquots of 50 μL were dispensed into 384 well black/clear tissue culture treated plates (BD) and the microplates were placed in a 37° C. incubator overnight. The following day plates were used in the assay.
(§2) Dye Loading and Assay: Loading Buffer (FLIPR Calcium-4, Molecular Devices) was prepared by dissolving the contents of one bottle into 100 mL Hank's Balanced Salt Solution containing 20 mM HEPES and 2.5 mM probenecid. Plates were loaded onto Biotek plate washer and growth media was removed and replaced with 20 μL of Hank's Balanced Salt Solution containing 20 mM HEPES and 2.5 mM probenecid, followed by 25 μL of Loading Buffer. The plates were then incubated for 30 minutes at 37° C.
During the incubation, test compounds were prepared by adding 90 μL of HBSS/20 mM HEPES/0.1% BSA buffer to 2 μL of serially diluted compounds. To prepare serial dilutions, 10 mM stocks of compounds were prepared in 100% DMSO.
After incubation, both the cell and “assay” plates were brought to the FLIPR and 20 μL of the diluted compounds were transferred to the cell plates by the FLIPR. Compound addition was monitored by FLIPR to detect any agonist activity of the compounds. Plates were then incubated for 30 minutes at room temperature protected from light. […] During the assay, fluorescence readings were taken simultaneously from all 384 wells of the cell plate every 1.5 seconds. Five readings were taken to establish a stable baseline, then 20 μL of sample was rapidly (30 μL/sec) and simultaneously added to each well of the cell plate. The fluorescence was continuously monitored before, during and after sample addition for a total elapsed time of 100 seconds. Responses (increase in peak fluorescence) in each well following agonist addition was determined. The initial fluorescence reading from each well, prior to ligand stimulation, was used as zero baseline value for the data from that well. The responses were expressed as % inhibition of the buffer control.
Background: A change in cytosolic calcium serves as a functional read-out for many receptors and channels.

Another test concerns the target T1, LPA3 (Homo sapiens, UniProt Q9UBY5).
T1 sequence (Q9UBY5 1-353): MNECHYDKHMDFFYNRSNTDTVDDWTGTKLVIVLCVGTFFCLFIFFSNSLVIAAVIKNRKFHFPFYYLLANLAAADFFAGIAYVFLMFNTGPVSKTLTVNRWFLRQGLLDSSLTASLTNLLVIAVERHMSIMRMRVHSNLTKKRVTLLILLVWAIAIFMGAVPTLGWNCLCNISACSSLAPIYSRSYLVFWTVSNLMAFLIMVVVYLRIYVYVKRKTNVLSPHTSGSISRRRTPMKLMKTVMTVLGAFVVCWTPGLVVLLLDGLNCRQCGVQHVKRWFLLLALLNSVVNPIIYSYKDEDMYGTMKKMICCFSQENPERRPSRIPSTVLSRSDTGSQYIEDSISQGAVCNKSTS
The experiment in a line: Calcium flux assay using FLIPR, LPA3 antagonist activity. It counts as cell-based. As to conditions: for IC50: antagonist activity. The method, then:
as §1, §2
During the incubation, test compounds were prepared by adding 90 μL of HBSS/20 mM HEPES/0.1% BSA buffer to 2 μL of serially diluted compounds. To prepare serial dilutions, 10 mM stocks of compounds were prepared in 100% DMSO. The compound dilution plate was set up as follows: well #1 received 29 μL of stock compound and 31 μL DMSO; wells 2-10 received 40 μL of DMSO; mixed and transferred 20 μL of solution from well #1 into well #2; continued with 1:3 serial dilutions out 10 steps; transferred 2 μL of diluted compound into duplicate wells of 384 well “assay plate” and then added the 90 μL of buffer.
After incubation, both the cell and “assay” plates were brought to the FLIPR and 20 μL of the diluted compounds were transferred to the cell plates by the FLIPR. Compound addition was monitored by FLIPR to detect any agonist activity of the compounds. Plates were then incubated for 30 minutes at room temperature protected from light. After the incubation, plates were returned to the FLIPR and 20 μL of 4.5× concentrated agonist was added to the cell plates. During the assay, fluorescence readings were taken simultaneously from all 384 wells of the cell plate every 1.5 seconds. Five readings were taken to establish a stable baseline, then 20 μL of sample was rapidly (30 μL/sec) and simultaneously added to each well of the cell plate. The fluorescence was continuously monitored before, during and after sample addition for a total elapsed time of 100 seconds. Responses (increase in peak fluorescence) in each well following agonist addition was determined. The initial fluorescence reading from each well, prior to ligand stimulation, was used as zero baseline value for the data from that well. The responses were expressed as % inhibition of the buffer control.

Chain of human recombinant LPA1 Lysophospholipid receptor (Q92633 whole entry): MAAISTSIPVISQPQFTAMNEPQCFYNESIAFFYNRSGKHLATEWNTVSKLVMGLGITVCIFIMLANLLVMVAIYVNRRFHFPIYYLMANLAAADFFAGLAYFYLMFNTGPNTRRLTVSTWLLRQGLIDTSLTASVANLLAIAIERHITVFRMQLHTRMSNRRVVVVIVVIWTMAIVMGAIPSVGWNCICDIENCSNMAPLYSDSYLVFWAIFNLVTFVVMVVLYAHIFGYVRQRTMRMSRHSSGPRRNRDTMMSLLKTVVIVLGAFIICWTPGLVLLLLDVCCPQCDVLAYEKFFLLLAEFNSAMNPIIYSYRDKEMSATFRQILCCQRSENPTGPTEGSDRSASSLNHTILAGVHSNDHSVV

For the compound `Cc1nnn(-c2ccc(-c3ccccc3)cc2)c1NC(=O)O[C@H](C)c1ccccc1` [Example 27, (3-Biphenyl-4-yl-5-methyl-3H-[1,2,3]triazol-4-yl)-carbamic acid (R)-1-phenyl-ethyl ester], the concentration for half-maximal inhibition (IC50) (in test [1]; at LPA3) was more than 30 µM throughout.

For `C[C@@H](OC(=O)Nc1cnnn1-c1ccc(-c2ccc(C3(C(=O)O)CC3)cc2)cc1)c1ccccc1` [Example 21, 1-{4′-[5-((R)-1-Phenyl-ethoxycarbonylamino)-[1,2,3]triazol-1-yl]-biphenyl-4-yl}-cyclopropanecarboxylic acid], the values for the IC50 (in test [1]; on LPA3) were 0.036 µM and more than 30 µM, respectively. In addition, the inhibition (in general, the drop in the measured response relative to a control, in per cent) at 30 µM on LPA3 came out at 22%.

Consider `Cc1nnn(-c2ccc(-c3ccc(C4(C(=O)NS(C)(=O)=O)CC4)cc3)cc2)c1NC(=O)O[C@H](C)c1ccccc1` [Example 30, {3-[4′-(1-Methanesulfonylaminocarbonyl-cyclopropyl)-biphenyl-4-yl]-5-methyl-3H[1,2,3]triazol-4-yl}-carbamic acid (R)-1-phenyl-ethyl ester], for which the IC50 – broadly, the point on the concentration scale where inhibition reaches its midpoint – is 0.033 µM in test [1] and more than 30 µM at LPA3.

Take `Cc1nnn(-c2ccc(-c3ccc(C4(C(=O)O)CC4)cc3)cc2)c1NC(=O)O[C@@H]1CCc2ccccc21` [Example 8, 1-{4′-[5-((R)-Indan-1-yloxycarbonylamino)-4-methyl-[1,2,3]triazol-1-yl]-biphenyl-4-yl}-cyclopropanecarboxylic acid]: the IC50 (in test [1]; on LPA3) was more than 30 µM each time.

For `Cc1c(NC(=O)O[C@H](C)c2ccccc2)nnn1-c1ccc(-c2ccc(CC(=O)O)cc2)cc1` [Example 4, {4′-[5-Methyl-4-((R)-1-phenyl-ethoxycarbonylamino)-[1,2,3]triazol-1-yl]-biphenyl-4-yl}-acetic acid], the IC50 (in test [1]; at LPA3) was more than 30 µM each time.

On to `CCc1nnn(-c2ccc(-c3ccc(CC(=O)O)cc3)cc2)c1NC(=O)O[C@H](C)c1ccccc1` [Example 18, {4′-[4-Ethyl-5-((R)-1-phenyl-ethoxycarbonylamino)-[1,2,3]triazol-1-yl]-biphenyl-4-yl}-acetic acid], for which, in test [1], the inhibition at 30 µM turned out to be 79.8% and the IC50 was found to be 1.23 µM. Moreover, the IC50 at LPA3 was more than 30 µM.

Consider `Cc1nnn(-c2ccc(-c3ccc(C4(C(=O)O)CC4)c(F)c3)cc2)c1NC(=O)O[C@H](C)c1ccccc1` [Example 15, 1-{3-Fluoro-4′-[4-methyl-5-((R)-1-phenyl-ethoxycarbonylamino)-[1,2,3]triazol-1-yl]-biphenyl-4-yl}-cyclopropanecarboxylic acid], for which the IC50 in test [1] worked out at 0.022 µM. Also, on LPA3, the inhibition at 30 µM came out at 46.3%.

Consider `C[C@@H](OC(=O)Nc1nncn1-c1ccc(-c2ccc(C3(C(=O)O)CC3)cc2)cc1)c1ccccc1` [Example 31, 1-{4′-[3-((R)-1-Phenyl-ethoxycarbonylamino)-[1,2,4]triazol-4-yl]-biphenyl-4-yl}-cyclopropanecarboxylic acid], for which, in test [1], the inhibition at 30 µM came out at 11% and the half-inhibitory concentration (IC50) is more than 30 µM. Further, the half-maximal inhibitory concentration (IC50) on LPA3 was more than 30 µM.

For the compound `Cc1nnn(-c2ccc(-c3ccc(C(C)(C)C(=O)O)cc3)cc2)c1NC(=O)O[C@H](C)c1ccccc1` [Example 23, 2-Methyl-2-{4′-[4-methyl-5-((R)-1-phenyl-ethoxycarbonylamino)-[1,2,3]triazol-1-yl]-biphenyl-4-yl}-propionic acid], in test [1], the inhibition at 30 µM was 80.9% and the IC50 came out at 0.796 µM. For the same compound, the half-maximal inhibitory concentration (IC50) on LPA3 is more than 30 µM.

Consider `Cc1nnn(-c2ccc(-c3ccc(C4(C(=O)O)CC4)cc3)cc2)c1NC(=O)O[C@H](C)c1ccccc1C(F)(F)F` [Example 6, 1-(4′-{4-Methyl-5-[(R)-1-(2-trifluoromethyl-phenyl)-ethoxycarbonylamino]-[1,2,3]triazol-1-yl}-biphenyl-4-yl)-cyclopropanecarboxylic acid], for which the IC50 in test [1] was found to be 0.112 µM. Besides, at LPA3, the inhibition at 30 µM is 55.2% and the IC50 turned out to be 25.9 µM.

For `C[C@@H](OC(=O)Nc1cnnn1-c1ccc(-c2ccc(CC(=O)O)cc2)cc1)c1ccccc1` [Example 22, {4′-[5-((R)-1-Phenyl-ethoxycarbonylamino)-[1,2,3]triazol-1-yl]-biphenyl-4-yl}-acetic acid], the IC50 (in test [1]; on LPA3) was more than 30 µM throughout.

In the case of `Cc1nnn(-c2ccc(-c3ccc(C4(C(=O)O)CC4)cc3)cc2)c1NC(=O)O[C@H](C)c1cccc(C(F)(F)F)c1` [Example 7, 1-(4′-{4-Methyl-5-[(R)-1-(3-trifluoromethyl-phenyl)-ethoxycarbonylamino]-[1,2,3]triazol-1-yl}-biphenyl-4-yl)-cyclopropanecarboxylic acid], the concentration for half-maximal inhibition (IC50) in test [1] was 0.174 µM; on LPA3 it was 6.86 µM.

Consider `CCc1nnn(-c2ccc(-c3ccc(CC(=O)O)cc3)cc2)c1NC(=O)O[C@H](C)c1cccc(C(F)(F)F)c1` [Example 20], for which, in test [1], the inhibition at 30 µM came to 58.3% and the half-maximal inhibitory concentration (IC50) is 21.2 µM. Also, on LPA3, the inhibition at 30 µM turned out to be 72.5% and the IC50 was determined as 14.3 µM.

For the compound `Cc1nnn(-c2ccc(-c3cccc(C4(C(=O)O)CC4)c3)cc2)c1NC(=O)O[C@H](C)c1ccccc1` [Example 24, (R)-1-(4′-(4-Methyl-5-((1-phenylethoxy)carbonylamino)-1H-1,2,3-triazol-1-yl)biphenyl-3-yl)cyclopropanecarboxylic acid], the IC50 (in test [1]; at LPA3) was more than 30 µM each time.

As to `Cc1nnn(-c2ccc(-c3ccc(CC(=O)O)cc3)cc2)c1NC(=O)O[C@H](C)c1ccccc1` [Example 2, {4′-[4-Methyl-5-((R)-1-phenyl-ethoxycarbonylamino)-[1,2,3]triazol-1-yl]-biphenyl-4-yl}-acetic acid], the inhibition at 30 µM in test [1] was found to be 40%. Further, the concentration for half-maximal inhibition (IC50) (in test [1]; on LPA3) was more than 30 µM throughout.

Turning to `Cc1nnn(-c2cccc(-c3ccc(CC(=O)O)cc3)c2)c1NC(=O)O[C@H](C)c1ccccc1` [Example 26, {3′-[4-Methyl-5-((R)-1-phenyl-ethoxycarbonylamino)-[1,2,3]triazol-1-yl]-biphenyl-4-yl}-acetic acid], the half-maximal inhibitory concentration (IC50) (in test [1]; on LPA3) was more than 30 µM each time.

As to `Cc1nnn(-c2ccc(-c3ccc(C#N)cc3)cc2)c1NC(=O)O[C@H](C)c1ccccc1` [Example 28, [3-(4′-Cyano-biphenyl-4-yl)-5-methyl-3H-[1,2,3]triazol-4-yl]-carbamic acid (R)-1-phenyl-ethyl ester], the concentration for half-maximal inhibition (IC50) (in test [1]; on LPA3) was more than 30 µM in each case.

`Cc1c(NC(=O)O[C@H](C)c2ccccc2)nnn1-c1ccc(-c2ccc(C3(C(=O)O)CC3)cc2)cc1` [Example 3, 1-{4′-[5-Methyl-4-((R)-1-phenyl-ethoxycarbonylamino)-[1,2,3]triazol-1-yl]-biphenyl-4-yl}-cyclopropanecarboxylic acid]: the half-inhibitory concentration (IC50) (in test [1]; on LPA3) was more than 30 µM each time.

The values above are taken from patent US20150133512A1, “N-ARYLTRIAZOLE COMPOUNDS AS LPAR ANTAGONISTS” (Hoffmann-La Roche Inc,, priority 2012, published 2015).
